Calls of active or inactive are those of the source. The calls are words filed in the database; no cut-off is given here.
Tests used:
MDA-MB-231 [1] = experiment: Antiproliferative activity against estrogen receptor negative human MDA-MB-231 cells assessed as inhibition of cell viability by MTT assay; assay type: functional, cell-based
MCF7 [2] = experiment: Antiproliferative activity against estrogen receptor positive human MCF7 cells assessed as inhibition of cell viability by MTT assay; assay type: functional, cell-based
MCF7 [3] = experiment: Induction of cell cycle arrest in estrogen receptor positive human MCF7 cells assessed as accumulation of cells at G0/G1 phase at 15 uM incubated for 24 hrs (reference value: 60.49%); assay type: functional
MCF7 [4] = experiment: Induction of cell cycle arrest in estrogen receptor positive human MCF7 cells assessed as accumulation of cells at S phase at 15 uM incubated for 24 hrs (reference value: 20.84%); assay type: functional
MCF7 [5] = experiment: Induction of cell cycle arrest in estrogen receptor positive human MCF7 cells assessed as accumulation of cells at G2/M phase at 15 uM incubated for 24 hrs (reference value: 19.32%); assay type: functional
MDA-MB-231 [6] = experiment: Induction of cell cycle arrest in estrogen receptor negative human MDA-MB-231 cells assessed as accumulation of cells at G0/G1 phase at 9 uM incubated for 24 hrs (reference value: 61.44%); assay type: functional
MDA-MB-231 [7] = experiment: Induction of cell cycle arrest in estrogen receptor […] human MDA-MB-231 cells assessed as accumulation of cells at S phase at 9 uM incubated for 24 hrs (reference value: 25.49%); assay type: functional
MDA-MB-231 [8] = experiment: Induction of cell cycle arrest in estrogen receptor […] human MDA-MB-231 cells assessed as accumulation of cells at G2/M phase at 9 uM incubated for 24 hrs (reference value: 13.64%); assay type: functional
MDA-MB-231 [9] = experiment: Induction of apoptosis in human MDA-MB-231 cells assessed as inhibition of PARP level; assay type: functional, cell-based
MCF7 [10] = experiment: Induction of apoptosis in human MCF7 cells assessed as inhibition of PARP level; assay type: functional, cell-based
MCF7 [11] = experiment: Induction of cell cycle arrest in estrogen receptor positive human MCF7 cells assessed as accumulation of cells at G0/G1 phase at 13.4 uM incubated for 24 hrs (reference value: 60.49%); assay type: functional
MCF7 [12] = experiment: Induction of cell cycle arrest in estrogen receptor positive human MCF7 cells assessed as accumulation of cells at S phase at 13.4 uM incubated for 24 hrs (reference value: 20.84%); assay type: functional
MCF7 [13] = experiment: Induction of cell cycle arrest in estrogen receptor positive human MCF7 cells assessed as accumulation of cells at G2/M phase at 13.4 uM incubated for 24 hrs (reference value: 19.32%); assay type: functional
MDA-MB-231 [14] = experiment: Induction of cell cycle arrest in estrogen receptor negative human MDA-MB-231 cells assessed as accumulation of cells at G0/G1 phase at 9.2 uM incubated for 24 hrs (reference value: 61.44%); assay type: functional
MDA-MB-231 [15] = experiment: Induction of cell cycle arrest in estrogen receptor […] human MDA-MB-231 cells assessed as accumulation of cells at S phase at 9.2 uM incubated for 24 hrs (reference value: 25.49%); assay type: functional
MDA-MB-231 [16] = experiment: Induction of cell cycle arrest in estrogen receptor […] human MDA-MB-231 cells assessed as accumulation of cells at G2/M phase at 9.2 uM incubated for 24 hrs (reference value: 13.64%); assay type: functional

SMILES	IC50 (MDA-MB-231 [1])	IC50 (MCF7 [2])	further results
COc1ccc2c(c1)OC(C)(C)C/C2=C(/c1ccc(O)cc1)c1ccccc1F	17 µM	22 µM	–
CCN(CC)CCOc1ccccc1/C(=C1/CC(C)(C)Oc2cc(OC)ccc21)c1ccccc1	12 µM	15 µM	–
COc1ccc2c(c1)OC(C)(C)CC2C(c1ccccc1)c1ccc(OCCN(C)C)cc1 (configuration not stated)	–	–	Activity (MDA-MB-231 [1]): inactive; Activity (MCF7 [2]): inactive
CCN(CC)CCOc1ccccc1C(c1ccccc1)C1CC(C)(C)Oc2cc(OC)ccc21 (configuration not stated)	9 µM	15 µM	Activity (MCF7 [3]): 61.57%; Activity (MCF7 [4]): 18.9%; Activity (MCF7 [5]): 20.33%; Activity (MDA-MB-231 [6]): 75.26%; Activity (MDA-MB-231 [7]): 13.26%; Activity (MDA-MB-231 [8]): 11.71%; Activity (MDA-MB-231 [9]): Active; Activity (MCF7 [10]): Active
COc1ccc2c(c1)OC(C)(C)C/C2=C(\c1ccccc1)c1ccc(O)cc1	9.5 µM	12.5 µM	–
COc1ccc2c(c1)OC(C)(C)C/C2=C(\c1ccccc1)c1ccccc1OCCN1CCCC1	13 µM	19 µM	–
COc1ccc2c(c1)OC(C)(C)CC2C(c1ccc(OCCN(C)C)cc1)c1ccccc1F (configuration not stated)	19 µM	24 µM	–
COc1ccc2c(c1)OC(C)(C)CC2C(c1ccccc1)c1ccc(O)cc1 (configuration not stated)	9.5 µM	12.5 µM	–
COc1ccc2c(c1)OC(C)(C)CC2C(c1ccccc1)c1ccc(OCC(C)N(C)C)cc1 (configuration not stated)	11.3 µM	15.2 µM	–
CC/C(=C(\c1ccccc1)c1ccc(OCCN(C)C)cc1)c1ccccc1 [TAMOXIFEN]	9.96 µM	–	–
COc1ccc2c(c1)OC(C)(C)CC2C(c1ccccc1)c1ccccc1OCCN1CCCCC1 (configuration not stated)	9.2 µM	13.4 µM	Activity (MCF7 [11]): 71.33%; Activity (MCF7 [12]): 11.86%; Activity (MCF7 [13]): 17.14%; Activity (MDA-MB-231 [14]): 74.38%; Activity (MDA-MB-231 [15]): 13.75%; Activity (MDA-MB-231 [16]): 12.12%; Activity (MDA-MB-231 [9]): Active; Activity (MCF7 [10]): Active

— ChEMBL document CHEMBL5576051, “Synthesis of 2,2-dimethyl-chroman-based stereochemically flexible and constrained anti-breast cancer agents” (Bioorg Med Chem Lett, 2024)
